Measurements taken from US20020137929A1, “1 - (3-heterocyclylphenyl) isothiourea, -isourea, -guanidine and -amidine herbicidal agents” (Intellectual Property Department, BASF Aktiengesellschaft, priority 1998, published 2002).

How the values were obtained:
GALAP (Galium) [1] = assay: Preemergence herbicidal evaluation; format: in vivo, Galium aparine; conditions: rated 4-5 weeks after treatment
From the text: (§1) Results of herbicide evaluation are expressed on a rating scale (0-9). The scale is based upon a visual observation of plant stand, vigor, malformation, size, chlorosis and overall plant appearance as compared with a control.
(§2) The preemergence herbicidal activity of the test compounds of the present invention is exemplified by the following tests in which the seeds of a variety of monocotyledonous and dicotyledonous plants are separately mixed with potting soil and planted on top of approximately one inch of soil in separate pint cups. After planting, the cups are sprayed with the selected aqueous acetone solution containing test compound in sufficient quantity to provide the equivalent of about 0.0156 to 0.500 kg per hectare of test compound per cup. The treated cups are then placed on greenhouse benches, watered and cared for in accordance with conventional greenhouse procedures. From four to five weeks after treatment, the tests are terminated and each cup is examined and rated according to the rating system provided in Example 37.
(§3) The compounds evaluated are reported by compound number given in Example 37.

[2] = test system: GLXMAW (Soybean, Williams); assay: Postemergence herbicidal evaluation; format: in vivo, Glycine max, (L.) Merr. cv Williams; conditions: postemergence
Description: (§4) In the tests, seedling plants are grown in jiffy flats for about two weeks. The test compounds are dispersed in 50/50 acetone/water mixtures containing 0.5% TWEEN®20, a polyoxyethylene sorbitan monolaurate surfactant of Atlas Chemical Industries, in sufficient quantities to provide the equivalent of about 0.0156 kg to 0.500 kg per hectare of active compound when applied to the plants through a spray nozzle operating at 40 psi for a predetermined time. After spraying, the plants are placed on greenhouse benches and are cared for in accordance with conventional greenhouse procedures. From four to five weeks after treatment, the seedling plants are examined and rated according to the rating system set forth below. Where more than one test is involved for a given compound, the data are averaged.
(§5) Plant species employed in these evaluations are reported by header abbreviation, common name and scientific name.
as §1

SETVI (Foxtail, Green) = assay: Postemergence herbicidal evaluation; format: in vivo, Setaria viridis; conditions: postemergence
Summary of the method: (§6)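 Two-week-old seedlings sprayed with compound in 50/50 acetone/water plus 0.5% TWEEN 20, at about 0.0156 to 0.500 kg/ha, nozzle at 40 psi. Kept in greenhouse; rated visually 4-5 weeks after treatment on a 0-9 scale versus control, repeat tests averaged.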

ECHCG (Barnyardgrass) = assay: Postemergence herbicidal evaluation; format: in vivo, Echinochloa crus-galli; conditions: postemergence
Description: as §4, §5, §1

ZEAMX (Corn, Field) = assay: Preemergence herbicidal evaluation; format: in vivo, Zea mays; conditions: rated 4-5 weeks after treatment
From the text: as §1, §2, §3

ORYSAT (Rice, Tebonnet) = assay: Postemergence herbicidal evaluation; format: in vivo, Oryza sativa, (L.) Tebonnet; conditions: postemergence
Summary of the method: as §6

AMBEL (Ragweed, Common) = assay: Postemergence herbicidal evaluation; format: in vivo, Ambrosia artemisifolia; conditions: postemergence
Description: as §4, §5, §1

[3] = test system: SAGPY (Arrowhead (Pygmaea)); assay: Preemergence weed control under flooded paddy conditions; format: in vivo, Sagittaria pygmaea; conditions: rated 3-4 weeks after treatment
Description: as §1
Preemergence herbicidal activity under flooded paddy conditions is determined as follows: plant seeds or propagating organs are planted in the top 0.5 cm of silt loam soil in 32 oz. plastic containers with a diameter of 10.5 cm and no drainage holes. Water is added to these containers and maintained at 1.5 to 3 cm above the soil surface for the duration of the experiment. The test compounds are applied as aqueous/acetone mixtures 50/50 v/v pipetted directly into the flood water to give the equivalent of about 0.0313 to 0.500 kg/ha of active ingredient. The treated containers are placed on greenhouse benches and cared for in accordance with conventional greenhouse procedures. Three to four weeks after treatment, the test is terminated and each container is examined and herbicidal effect rated according to the rating system provided in Example 37. The compounds evaluated are reported by compound number given in Example 37.
Plant species employed in this example are reported by header abbreviation, common name and scientific name.

GALAP (Galium) [4] = assay: Postemergence herbicidal evaluation; format: in vivo, Galium aparine; conditions: postemergence
Summary of the method: as §6

CASOB (Sicklepod) [5] = assay: Preemergence herbicidal evaluation; format: in vivo, Cassia obtusifolia; conditions: rated 4-5 weeks after treatment
From the text: as §1, §2, §3

CASOB (Sicklepod) [6] = assay: Postemergence herbicidal evaluation; format: in vivo, Cassia obtusifolia; conditions: postemergence
Summary of the method: as §6

CYPIR (Rice Flatsedge) = assay: Preemergence weed control under flooded paddy conditions; format: in vivo, Cyperus iria; conditions: rated 3-4 weeks after treatment
Summary of the method: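 Flooded-pot preemergence screen with silt loam and seeds in the upper 0.5 cm. Dose about 0.0313 to 0.500 kg/ha, delivered into flood water; visual 0-9 score after 3 to 4 weeks.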

[7] = test system: CHEAL (Lambsquarters, Common); assay: Postemergence herbicidal evaluation; format: in vivo, Chenopodium album; conditions: postemergence
Description: as §4, §5, §1

CCOC(=O)CN1C(=O)CN(C)C1=Nc1cc(-n2c(=O)cc(C(F)(F)F)n(C)c2=O)c(F)cc1Cl [Compound 25, Ethyl 2-{{2-chloro-5-[3,6-dihydro-3-methyl-2,6-dioxo-4-(trifluoromethyl)-1(2H)-pyrimidinyl]-4-fluorophenyl}imino}-3-methyl-5-oxo-1-imidazolidineacetate]
0.0: Preemergence herbicidal rating GALAP (GALAP (Galium) [1]; rate 0.0156 kg/ha) | Preemergence herbicidal rating GALAP (GALAP (Galium) [1]; rate 0.0313 kg/ha) | GALAP preemergence herbicidal rating (GALAP (Galium) [1]; rate 0.0625 kg/ha) | GALAP preemergence herbicidal rating (GALAP (Galium) [1]; rate 0.1250 kg/ha) | GALAP preemergence herbicidal rating (GALAP (Galium) [1]; rate 0.2500 kg/ha) | SETVI herbicidal rating (SETVI (Foxtail, Green); rate 0.0156 kg/ha) | SETVI herbicidal rating (SETVI (Foxtail, Green); rate 0.0313 kg/ha) | SETVI herbicidal rating (SETVI (Foxtail, Green); rate 0.0625 kg/ha) | ECHCG herbicidal rating (ECHCG (Barnyardgrass); rate 0.0156 kg/ha) | ECHCG herbicidal rating (ECHCG (Barnyardgrass); rate 0.0313 kg/ha) | ECHCG herbicidal rating (ECHCG (Barnyardgrass); rate 0.0625 kg/ha) | Preemergence herbicidal rating ZEAMX (ZEAMX (Corn, Field); rate 0.0156 kg/ha) | Preemergence herbicidal rating ZEAMX (ZEAMX (Corn, Field); rate 0.0313 kg/ha) | Herbicidal rating SAGPY ([3]; 0.0313 kg/ha) | Herbicidal rating SAGPY ([3]; 0.0625 kg/ha) | Preemergence herbicidal rating CASOB (CASOB (Sicklepod) [5]; rate 0.0156 kg/ha) | Preemergence herbicidal rating CASOB (CASOB (Sicklepod) [5]; rate 0.0313 kg/ha) | CASOB preemergence herbicidal rating (CASOB (Sicklepod) [5]; rate 0.0625 kg/ha) | CASOB herbicidal rating (CASOB (Sicklepod) [6]; rate 0.0156 kg/ha) | CASOB herbicidal rating (CASOB (Sicklepod) [6]; rate 0.0313 kg/ha) | CASOB herbicidal rating (CASOB (Sicklepod) [6]; rate 0.0625 kg/ha) | Herbicidal rating CYPIR (CYPIR (Rice Flatsedge); 0.0313 kg/ha) | Herbicidal rating CYPIR (CYPIR (Rice Flatsedge); 0.0625 kg/ha) | Herbicidal rating CYPIR (CYPIR (Rice Flatsedge); 0.1250 kg/ha) | Herbicidal rating CYPIR (CYPIR (Rice Flatsedge); 0.2500 kg/ha)
3.0: AMBEL herbicidal rating (AMBEL (Ragweed, Common); rate 0.0156 kg/ha) | CASOB preemergence herbicidal rating (CASOB (Sicklepod) [5]; rate 0.2500 kg/ha)
8.0: GLXMAW herbicidal rating ([2]; rate 0.0625 kg/ha) | ZEAMX preemergence herbicidal rating (ZEAMX (Corn, Field); rate 0.1250 kg/ha)
7.0: GLXMAW herbicidal rating ([2]; rate 0.0156 kg/ha) | GALAP herbicidal rating (GALAP (Galium) [4]; rate 0.0625 kg/ha)
0.5: ORYSAT herbicidal rating (ORYSAT (Rice, Tebonnet); rate 0.0156 kg/ha)
5.0: Herbicidal rating SAGPY ([3]; 0.1250 kg/ha) | Herbicidal rating SAGPY ([3]; 0.2500 kg/ha) | GALAP herbicidal rating (GALAP (Galium) [4]; rate 0.0313 kg/ha) | CHEAL herbicidal rating ([7]; rate 0.0313 kg/ha)
6.0: ZEAMX preemergence herbicidal rating (ZEAMX (Corn, Field); rate 0.0625 kg/ha)
7.5: GLXMAW herbicidal rating ([2]; rate 0.0313 kg/ha)
9.0: ZEAMX preemergence herbicidal rating (ZEAMX (Corn, Field); rate 0.2500 kg/ha) | AMBEL herbicidal rating (AMBEL (Ragweed, Common); rate 0.0625 kg/ha) | CHEAL herbicidal rating ([7]; rate 0.0625 kg/ha)
2.0: ORYSAT herbicidal rating (ORYSAT (Rice, Tebonnet); rate 0.0313 kg/ha) | ORYSAT herbicidal rating (ORYSAT (Rice, Tebonnet); rate 0.0625 kg/ha) | GALAP herbicidal rating (GALAP (Galium) [4]; rate 0.0156 kg/ha) | CASOB preemergence herbicidal rating (CASOB (Sicklepod) [5]; rate 0.1250 kg/ha) | CHEAL herbicidal rating ([7]; rate 0.0156 kg/ha)
4.0: AMBEL herbicidal rating (AMBEL (Ragweed, Common); rate 0.0313 kg/ha)

Cn1c(C(F)(F)F)cc(=O)n(-c2cc(N=C3SCC(=O)N3Cc3ccccc3)c(Cl)cc2F)c1=O [Compound 26]
9.0: Preemergence herbicidal rating GALAP (GALAP (Galium) [1]; rate 0.1250 kg/ha) | Preemergence herbicidal rating GALAP (GALAP (Galium) [1]; rate 0.2500 kg/ha) | AMBEL herbicidal rating (AMBEL (Ragweed, Common); rate 0.0156 kg/ha) | AMBEL herbicidal rating (AMBEL (Ragweed, Common); rate 0.0625 kg/ha) | Herbicidal rating CYPIR (CYPIR (Rice Flatsedge); 0.2500 kg/ha) | CHEAL herbicidal rating ([7]; rate 0.0156 kg/ha) | CHEAL herbicidal rating ([7]; rate 0.0313 kg/ha) | CHEAL herbicidal rating ([7]; rate 0.0625 kg/ha)
2.0: Preemergence herbicidal rating ZEAMX (ZEAMX (Corn, Field); rate 0.0625 kg/ha) | Herbicidal rating CYPIR (CYPIR (Rice Flatsedge); 0.0313 kg/ha)
1.0: ORYSAT herbicidal rating (ORYSAT (Rice, Tebonnet); rate 0.0313 kg/ha)
3.0: GALAP herbicidal rating (GALAP (Galium) [4]; rate 0.0156 kg/ha)
5.5: GLXMAW herbicidal rating ([2]; rate 0.0156 kg/ha) | GLXMAW herbicidal rating ([2]; rate 0.0313 kg/ha)
6.0: GLXMAW herbicidal rating ([2]; rate 0.0625 kg/ha)
0.5: ORYSAT herbicidal rating (ORYSAT (Rice, Tebonnet); rate 0.0156 kg/ha)
8.0: AMBEL herbicidal rating (AMBEL (Ragweed, Common); rate 0.0313 kg/ha)
7.0: Herbicidal rating SAGPY ([3]; 0.2500 kg/ha) | Herbicidal rating CYPIR (CYPIR (Rice Flatsedge); 0.1250 kg/ha)
1.5: ORYSAT herbicidal rating (ORYSAT (Rice, Tebonnet); rate 0.0625 kg/ha)
0.0: Preemergence herbicidal rating GALAP (GALAP (Galium) [1]; rate 0.0156 kg/ha) | Preemergence herbicidal rating GALAP (GALAP (Galium) [1]; rate 0.0313 kg/ha) | Preemergence herbicidal rating GALAP (GALAP (Galium) [1]; rate 0.0625 kg/ha) | SETVI herbicidal rating (SETVI (Foxtail, Green); rate 0.0156 kg/ha) | SETVI herbicidal rating (SETVI (Foxtail, Green); rate 0.0313 kg/ha) | SETVI herbicidal rating (SETVI (Foxtail, Green); rate 0.0625 kg/ha) | ECHCG herbicidal rating (ECHCG (Barnyardgrass); rate 0.0156 kg/ha) | ECHCG herbicidal rating (ECHCG (Barnyardgrass); rate 0.0313 kg/ha) | ECHCG herbicidal rating (ECHCG (Barnyardgrass); rate 0.0625 kg/ha) | Preemergence herbicidal rating ZEAMX (ZEAMX (Corn, Field); rate 0.0156 kg/ha) | Preemergence herbicidal rating ZEAMX (ZEAMX (Corn, Field); rate 0.0313 kg/ha) | Herbicidal rating SAGPY ([3]; 0.0313 kg/ha) | Preemergence herbicidal rating CASOB (CASOB (Sicklepod) [5]; rate 0.0156 kg/ha) | Preemergence herbicidal rating CASOB (CASOB (Sicklepod) [5]; rate 0.0313 kg/ha) | Preemergence herbicidal rating CASOB (CASOB (Sicklepod) [5]; rate 0.0625 kg/ha) | Preemergence herbicidal rating CASOB (CASOB (Sicklepod) [5]; rate 0.1250 kg/ha) | Preemergence herbicidal rating CASOB (CASOB (Sicklepod) [5]; rate 0.2500 kg/ha) | CASOB herbicidal rating (CASOB (Sicklepod) [6]; rate 0.0156 kg/ha) | CASOB herbicidal rating (CASOB (Sicklepod) [6]; rate 0.0313 kg/ha) | CASOB herbicidal rating (CASOB (Sicklepod) [6]; rate 0.0625 kg/ha)
4.0: Preemergence herbicidal rating ZEAMX (ZEAMX (Corn, Field); rate 0.1250 kg/ha) | Herbicidal rating SAGPY ([3]; 0.0625 kg/ha) | Herbicidal rating CYPIR (CYPIR (Rice Flatsedge); 0.0625 kg/ha)
5.0: Preemergence herbicidal rating ZEAMX (ZEAMX (Corn, Field); rate 0.2500 kg/ha) | Herbicidal rating SAGPY ([3]; 0.1250 kg/ha) | GALAP herbicidal rating (GALAP (Galium) [4]; rate 0.0313 kg/ha) | GALAP herbicidal rating (GALAP (Galium) [4]; rate 0.0625 kg/ha)
